Tests used:
human orexin-1 receptor = target: T1, human orexin-1 receptor (Homo sapiens, UniProt O43613); assay: Intracellular calcium measurements (FLIPR), orexin receptor antagonistic activity; format: cell-based; details: CHO cells expressing human orexin-1 receptor; 10 nM orexin-A as agonist; fluo-3 AM calcium signal; read-out: OX1 IC50
T1 construct: expressed in transfected cells; host or cells: CHO cells (grown under G418 selection)
T1 sequence (O43613 1-425): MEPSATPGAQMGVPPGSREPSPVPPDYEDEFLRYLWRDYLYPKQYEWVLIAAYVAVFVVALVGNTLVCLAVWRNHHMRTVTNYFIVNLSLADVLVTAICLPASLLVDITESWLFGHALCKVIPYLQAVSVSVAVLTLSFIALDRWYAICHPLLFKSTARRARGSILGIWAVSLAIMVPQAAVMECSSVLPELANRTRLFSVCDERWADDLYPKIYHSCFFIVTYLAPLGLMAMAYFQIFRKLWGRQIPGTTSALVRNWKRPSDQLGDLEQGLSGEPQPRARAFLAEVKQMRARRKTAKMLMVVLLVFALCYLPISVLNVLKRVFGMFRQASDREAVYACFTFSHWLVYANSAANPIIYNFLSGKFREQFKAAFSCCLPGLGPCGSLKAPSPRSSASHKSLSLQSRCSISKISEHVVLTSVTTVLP
Protocol: (§1) The orexin receptor antagonistic activity of the compounds of formula (I) is determined in accordance with the following experimental method.
(§2) Chinese hamster ovary (CHO) cells expressing the human orexin-1 receptor and the human orexin-2 receptor, respectively, are grown in culture medium (Ham F-12 with L-Glutamine) containing 300 μg/ml G418, 100 U/ml penicillin, 100 μg/ml streptomycin and 10% inactivated fetal calf serum (FCS). The cells are seeded at 80′000 cells/well into 96-well black clear bottom sterile plates (Costar) which have been precoated with 1% gelatine in Hanks' Balanced Salt Solution (HBSS). All reagents are from Gibco BRL. The seeded plates are incubated overnight at 37° C. in 5% CO2.
(§3) Human orexin-A as an agonist is prepared as 1 mM stock solution in methanol:water (1:1), diluted in HBSS containing 0.1% bovine serum albumin (BSA) and 2 mM HEPES for use in the assay at a final concentration of 10 nM.
(§4) Antagonists are prepared as 10 mM stock solution in DMSO, then diluted in 96-well plates, first in DMSO, then in HBSS containing 0.1% bovine serum albumin (BSA) and 2 mM HEPES.
(§5) On the day of the assay, 100 μl of loading medium (HBSS containing 1% FCS, 2 mM HEPES, 5 mM probenecid (Sigma) and 3 μM of the fluorescent calcium indicator fluo-3 AM (1 mM stock solution in DMSO with 10% pluronic acid) (Molecular Probes) is added to each well.
(§6) The 96-well plates are incubated for 60 min at 37° C. in 5% CO2. The loading solution is then aspirated and cells are washed 3 times with 200 μl HBSS containing 2.5 mM probenecid, 0.1% BSA, 2 mM HEPES. 100 μl of that same buffer is left in each well. Within the Fluorescent Imaging Plate Reader (FLIPR, Molecular Devices), antagonists are added to the plate in a volume of 50 μl, incubated for 20 min and finally 100 μl of agonist is added. Fluorescence is measured for each well at 1 second intervals, and the height of each fluorescence peak is compared to the height of the fluorescence peak induced by 10 nM orexin-A with buffer in place of antagonist. For each antagonist, IC50 value (the concentration of compound needed to inhibit 50% of the agonistic response) is determined.

human orexin-2 receptor = target: T2, human orexin-2 receptor (Homo sapiens, UniProt O43614); assay: as above; format: cell-based; details: CHO cells expressing human orexin-2 receptor; 10 nM orexin-A as agonist; fluo-3 AM calcium signal; read-out: OX2 IC50
T2 construct: expressed in transfected cells; host or cells: CHO cells (grown under G418 selection)
T2 sequence (O43614 1-444): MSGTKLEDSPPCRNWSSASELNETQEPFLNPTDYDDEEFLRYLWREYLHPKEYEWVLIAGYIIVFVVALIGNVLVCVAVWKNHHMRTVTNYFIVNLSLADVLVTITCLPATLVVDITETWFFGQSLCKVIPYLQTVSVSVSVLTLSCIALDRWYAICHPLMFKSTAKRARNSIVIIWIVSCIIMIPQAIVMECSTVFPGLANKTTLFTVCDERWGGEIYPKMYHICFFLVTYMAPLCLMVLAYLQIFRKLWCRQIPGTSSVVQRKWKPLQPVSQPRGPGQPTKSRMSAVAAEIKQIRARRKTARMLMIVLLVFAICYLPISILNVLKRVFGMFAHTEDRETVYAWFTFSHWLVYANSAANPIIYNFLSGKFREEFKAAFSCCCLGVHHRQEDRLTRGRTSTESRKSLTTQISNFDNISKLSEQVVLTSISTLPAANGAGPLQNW
Protocol: as §1, §2, §3, §4, §5, §6

Cc1nc(C(=O)N2CCC2CNC(=O)c2c(C)nc3sccn23)c(-c2ccc(Cl)c(Cl)c2)s1 (racemic) [Example 32, (2RS)-6-Methyl-imidazo[2,1-b]thiazole-5-carboxylic acid{1-[5-(3,4-dichloro-phenyl)-2-methyl-thiazole-4-carbonyl]-azetidin-2-ylmethyl}-amide]
IC50 (human orexin-1 receptor): 75 nM | IC50 (human orexin-2 receptor): 25 nM

Cc1cccc(-c2sc(C)nc2C(=O)N2CCC2CNC(=O)c2nc3scc(C)n3c2C)c1 (racemic) [Example 40, (2RS)-3,5-Dimethyl-imidazo[2,1-b]thiazole-6-carboxylic acid [1-(2-methyl-5-m-tolyl-thiazole-4-carbonyl)-azetidin-2-ylmethyl]-amide]
IC50 (human orexin-1 receptor): 11 nM | IC50 (human orexin-2 receptor): 39 nM

Cc1cccc(-c2sc(C)nc2C(=O)N2CCC2CNC(=O)c2nc3sccn3c2C)c1 (racemic) [Example 42, (2RS)-5-Methyl-imidazo[2,1-b]thiazole-6-carboxylic acid [1-(2-methyl-5-m-tolyl-thiazole-4-carbonyl)-azetidin-2-ylmethyl]-amide]
IC50 (human orexin-1 receptor): 85 nM | IC50 (human orexin-2 receptor): 41 nM

Cc1cccc(-c2sc(C)nc2C(=O)N2CCC2CNC(=O)c2c(C(F)(F)F)nc3sccn23)c1 (racemic) [Example 50, (2RS)-6-Trifluoromethyl-imidazo[2,1-b]thiazole-5-carboxylic acid [1-(2-methyl-5-m-tolyl-thiazole-4-carbonyl)-azetidin-2-ylmethyl]-amide]
IC50 (human orexin-1 receptor): 391 nM | IC50 (human orexin-2 receptor): 57 nM

Cc1cccc(-c2sc(C)nc2C(=O)N2CCC2CNC(=O)c2cccc3c2OCCN3C)c1 (racemic) [Example 54, (2RS)-4-Methyl-3,4-dihydro-2H-benzo[1,4]oxazine-8-carboxylic acid [1-(2-methyl-5-m-tolyl-thiazole-4-carbonyl)-azetidin-2-ylmethyl]-amide]
IC50 (human orexin-1 receptor): 3100 nM | IC50 (human orexin-2 receptor): 13 nM

Cc1cccc(-c2sc(C)nc2C(=O)N2CCC2CNC(=O)c2cccc3c2OCCC3)c1 (racemic) [Example 57, (2RS)-Chroman-8-carboxylic acid [1-(2-methyl-5-m-tolyl-thiazole-4-carbonyl)-azetidin-2-ylmethyl]-amide]
IC50 (human orexin-1 receptor): 1200 nM | IC50 (human orexin-2 receptor): 19 nM

Cc1cccc(-c2sc(C)nc2C(=O)N2CCC2CNC(=O)c2cnc3scc(C)n23)c1 (racemic) [Example 61, (2RS)-3-Methyl-imidazo[2,1-b]thiazole-5-carboxylic acid [1-(2-methyl-5-m-tolyl-thiazole-4-carbonyl)-azetidin-2-ylmethyl]-amide]
IC50 (human orexin-1 receptor): 1920 nM | IC50 (human orexin-2 receptor): 43 nM

COc1ccccc1C(=O)N1CC[C@H]1CNC(=O)c1cccc2occc12 [Example 9, (2S)-benzofuran-4-carboxylic acid [1-(2-methoxy-benzoyl)-azetidin-2-ylmethyl]-amide]
IC50 (human orexin-1 receptor): 88 nM | IC50 (human orexin-2 receptor): 122 nM

Cc1nc(C(=O)N2CCC2CNC(=O)c2c(C)nc3sccn23)c(-c2cccc(F)c2)s1 (stereo not drawn) [Example 11, (2RS)-6-Methyl-imidazo[2,1-b]thiazole-5-carboxylic acid{1-[5-(3-fluoro-phenyl)-2-methyl-thiazole-4-carbonyl]-azetidin-2-ylmethyl}-amide]
IC50 (human orexin-1 receptor): 196 nM | IC50 (human orexin-2 receptor): 66 nM

Cc1ccc(-c2ccccc2C(=O)N2CC[C@H]2CNC(=O)c2cccc3occc23)cc1C [Example 15, (2S)-Benzofuran-4-carboxylic acid [1-(3′,4′-dimethyl-biphenyl-2-carbonyl)-azetidin-2-ylmethyl]-amide]
IC50 (human orexin-1 receptor): 70 nM | IC50 (human orexin-2 receptor): 11 nM

Cc1cccc(-c2sc(C)nc2C(=O)N2CC[C@H]2CNC(=O)c2c(Cl)nc3sccn23)c1 [Example 21, (2S)-6-Chloro-imidazo[2,1-b]thiazole-5-carboxylic acid [1-(2-methyl-5-m-tolyl-thiazole-4-carbonyl)-azetidin-2-ylmethyl]-amide]
IC50 (human orexin-1 receptor): 41 nM | IC50 (human orexin-2 receptor): 7 nM

Cc1cccc(-c2sc(N)nc2C(=O)N2CC[C@H]2CNC(=O)c2c(Cl)nc3sccn23)c1 [Example 22, (2S)-6-Chloro-imidazo[2,1-b]thiazole-5-carboxylic acid [1-(2-amino-5-m-tolyl-thiazole-4-carbonyl)-azetidin-2-ylmethyl]-amide]
IC50 (human orexin-1 receptor): 10 nM | IC50 (human orexin-2 receptor): 5 nM

COc1ccc(-c2sc(C)nc2C(=O)N2CCC2CNC(=O)c2c(C)nc3sccn23)cc1 (stereo not drawn) [Example 28, (2RS)-6-Methyl-imidazo[2,1-b]thiazole-5-carboxylic acid{1-[5-(4-methoxy-phenyl)-2-methyl-thiazole-4-carbonyl]-azetidin-2-ylmethyl}-amide]
IC50 (human orexin-1 receptor): 89 nM | IC50 (human orexin-2 receptor): 11 nM

Cc1nc(C(=O)N2CCC2CNC(=O)c2c(C)nc3sccn23)c(-c2ccc(F)c(F)c2)s1 (stereo not drawn) [Example 67, (2RS)-6-Methyl-imidazo[2,1-b]thiazole-5-carboxylic acid{1-[5-(3,4-difluoro-phenyl)-2-methyl-thiazole-4-carbonyl]-azetidin-2-ylmethyl}-amide]
IC50 (human orexin-1 receptor): 2010 nM | IC50 (human orexin-2 receptor): 102 nM

Cc1cccc(-c2oc(C)nc2C(=O)N2CCC2CNC(=O)c2c(C)nc3sccn23)c1 (stereo not drawn) [Example 83, (2RS)-6-Methyl-imidazo[2,1-b]thiazole-5-carboxylic acid [1-5-(2-methyl-5-m-tolyl-oxazole-4-carbonyl)-azetidin-2-ylmethyl]-amide]
IC50 (human orexin-1 receptor): 1640 nM | IC50 (human orexin-2 receptor): 406 nM

From patent publication US7994336B2, “Azetidine compounds as orexin receptor antagonists” (Actelion Pharmaceuticals Ltd., priority 2006, dated 2011)
